Where a name gives a salt, the structure may show the parent alone.
Key:
S1P1 [1] = target: T1, S1P1 (Homo sapiens, UniProt P21453); assay: S1P1 Binding Assay (33P-S1P ligand competition, membranes from CHO cells); design: expressed in transfected cells; host or cells: CHO cells; details: membranes of CHO cells expressing human S1P1; 0.03 nM 33P-S1P; 60 min room temperature
Protocol: Membranes were prepared from CHO cells expressing human S1P1. Cells were dissociated in buffer containing 20 mM HEPES, pH 7.5, 50 mM NaCl, 2 mM EDTA and Protease Inhibitor cocktail (Roche), and disrupted on ice using the Polytron homogenizer. The homogenate was centrifuged at 20,000 rpm (48,000 g) and the supernatant was discarded. The membrane pellets were resuspended in buffer containing 50 mM HEPES, pH 7.5, 100 mM NaCl, 1 mM MgCl2, 2 mM EDTA and stored in aliquots at −80° C. after protein concentration determination.
Membranes (2 μg/well) and 0.03 nM final concentration of ^33P-S1P ligand (1 mCi/ml, American Radiolabeled Chemicals) were added to the compound plates. Binding was performed for 60 min at room temperature, terminated by collecting the membranes onto GF/B filter plates, and radioactivity was measured by TOPCOUNT®. The competition data of the test compounds over a range of concentrations was plotted as percentage inhibition of radioligand specific binding. The IC50 is defined as the concentration of competing ligand needed to reduce specific binding by 50%.
Compounds of the present invention and Comparative Compound A were tested in the S1P1 binding assay described hereinabove and the results rounded to two digits, shown in Table A were obtained. In some instances, the value is an average of multiple experiments where N is the number of experiments conducted that provided satisfactory dose response curves. When more than one batch of an example was tested, the value presented is from the batch which allowed a comparison of GTPγS S1P1 and GTPγS S1P3 in Method A (Data shown in Table B). Data was not averaged across different batches of an example compound.

S1P1 [2] = target: T1, S1P1; assay: Method A: Receptor [35S] GTPγS Binding Assay, membranes from S1P1/CHO cells; type: biochemical; design: expressed in transfected cells; host or cells: S1P1/CHO cells; details: for EC50: Method A, S1P1/CHO cell membranes; for GTPγS S1P3/S1P1 (Method A): ratio of GTPγS S1P3 EC50 to GTPγS S1P1 EC50, Method A
Protocol: (§1) Compounds were loaded in a 384 Falcon v-bottom plate (0.5 μl/well in a 3-fold dilution). Membranes prepared from S1P1/CHO cells or EDG3-Ga15-bla HEK293T cells were added to the compound plate (40 μl/well, final protein […]) with MULTIDROP®. [^35S]GTP (1250 Ci/mmol, Perkin Elmer) was diluted in assay buffer: 20 mM HEPES, pH7.5, 10 mM MgCl2, 150 mM NaCl, 1 mM EGTA, 1 mM DTT, 10 μM GDP, 0.1% fatty acid free BSA, and 10 mg/ml Saponin to 0.4 nM. 40 μl of the [^35S] GTP solution was added to the compound plate with a final concentration of 0.2 nM. The reaction was kept at room temperature for 45 min. At the end of incubation, all the mixtures in the compound plate were transferred to a 384 well FB filter plates via GPCR robot system. The filter plate was washed with water 4 times by using the modified manifold Embla plate washer and dried at 60° C. for 45 min. 30 μl of MicroScint 20 scintillation fluid was added to each well for counting at Packard TOPCOUNT®. EC50 is defined as the agonist concentration that corresponds to 50% of the Ymax (maximal response) obtained for each individual compound tested.
(§2) Compounds of the present invention and Comparative Compound A were tested in the Receptor [^35S] GTPγS Binding Assays (Method A) and Receptor [35S] In some instances, the value is an average of multiple experiments where N is the number of experiments conducted that provided satisfactory dose response curves. When more than one batch of an example was tested, the value presented is from a batch which allowed a comparison of GTPγS S1P1 and GTPγS S1P3 in which the most number of experiments were performed. Preferably, the same batch was examined in Method A and Method B. Data was not averaged across different batches of an example compound.

S1P1 [3] = target: T1, S1P1; assay: Method B: Receptor [35S] GTPγS SPA Binding Assay, membranes from S1P1 transfected CHO cells; type: biochemical; design: expressed in transfected cells; host or cells: S1P1/CHO cells; details: Method B SPA; S1P1 transfected CHO cell membranes; NC = a satisfactory dose response curve was not obtained
Protocol: Membranes prepared from S1P1 or S1P3 transfected CHO cells (2 μg protein) were incubated in 96-well white plates (CORNING® 3693) with test compounds diluted in DMSO, in 50 μl of reaction mixture containing 7.5 μl WGA-PVT beads (20 mg/ml), and 5 μM GDP, 20 mM HEPES pH 7.4, 100 mM NaCl, 1 mM EDTA, 5 mM MgCl2, 10 μg/ml saponin, 0.1% BSA, and 1 μM leupeptin. The assay was initiated with the addition of 25 μl of 0.2 nM [^35S]-GTPγS (1250 Ci/mmol; NEN) in assay buffer. After 90 min incubation at room temperature, spin the plate at 1000 rpm for 5 min. The bound radionuclides were measured at TOPCOUNT®, expressed as % response relative to S1P (1 μM) activation. Data was analyzed using the four parameter logistic equation in Excel. The four parameters in the equation, Y=A+((B−A)/(1+((EC50/X)^D))), are described as following: A is the Y value (agonist activity) at the bottom plateau; B is the Y value at the top plateau; EC50 is the X value (agonist concentration) when the response is halfway between bottom and top; D is Hill coefficient. Curves were not generated for compounds having Ymax values were below 50%.
as §2

S1P3 = S1P3 (Homo sapiens, UniProt Q99500); assay: Method A: Receptor [35S] GTPγS Binding Assay, membranes from EDG3-Ga15-bla HEK293T cells; type: biochemical; design: expressed in transfected cells; host or cells: EDG3-Ga15-bla HEK293T cells; details: EDG3-Ga15-bla HEK293T cell membranes
Protocol: as §1, §2

S1P3, sequence (Q99500 whole entry): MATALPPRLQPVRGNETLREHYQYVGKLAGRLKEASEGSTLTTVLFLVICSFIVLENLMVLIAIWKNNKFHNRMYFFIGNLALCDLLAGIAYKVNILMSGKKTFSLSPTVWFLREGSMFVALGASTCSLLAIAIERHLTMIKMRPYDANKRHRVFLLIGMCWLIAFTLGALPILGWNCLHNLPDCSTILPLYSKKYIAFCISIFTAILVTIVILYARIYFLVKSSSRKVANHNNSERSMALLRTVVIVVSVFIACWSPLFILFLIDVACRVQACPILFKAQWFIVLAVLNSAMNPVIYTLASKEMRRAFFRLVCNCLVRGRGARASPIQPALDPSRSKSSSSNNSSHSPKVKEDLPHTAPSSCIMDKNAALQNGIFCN
T1 sequence (P21453 whole entry): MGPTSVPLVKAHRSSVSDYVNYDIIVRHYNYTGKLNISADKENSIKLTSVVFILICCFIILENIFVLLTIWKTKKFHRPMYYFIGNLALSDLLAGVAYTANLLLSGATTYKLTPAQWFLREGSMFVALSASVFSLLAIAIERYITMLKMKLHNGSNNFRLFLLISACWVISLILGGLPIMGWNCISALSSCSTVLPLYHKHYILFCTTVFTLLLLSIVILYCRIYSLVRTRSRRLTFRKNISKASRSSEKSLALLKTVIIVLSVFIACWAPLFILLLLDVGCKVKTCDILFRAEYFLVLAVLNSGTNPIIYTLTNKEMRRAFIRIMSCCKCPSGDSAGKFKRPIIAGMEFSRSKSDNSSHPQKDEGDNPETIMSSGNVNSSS

Compound: CCCCc1c(-c2nc(-c3ccc(CN4CC(C(=O)O)C4)cc3)no2)noc1-c1ccccc1 [Example 3, 1-(4-(5-(4-Butyl-5-phenylisoxazol-3-yl)-1,2,4-oxadiazol-3-yl)benzyl)-azetidine-3-carboxylic acid]
- IC50 (S1P1 [1]): 0.065 nM
- EC50 (S1P1 [2]): 0.26 nM
- GTPγS S1P3/S1P1 (Method A) (S1P1 [2]): 1,300
- EC50 (S1P1 [3]): 0.16 nM
- EC50 (S1P3): 330 nM

Compound: CC(C)Cc1c(-c2nc(-c3ccc(CN4CC(C(=O)O)C4)cc3)no2)noc1-c1ccccc1 [Example 4, 1-(4-(5-(4-Isobutyl-5-phenylisoxazol-3-yl)-1,2,4-oxadiazol-3-yl)benzyl)-azetidine-3-carboxylic acid]
- IC50 (S1P1 [1]): 0.17 nM
- EC50 (S1P1 [2]): 0.7 nM
- GTPγS S1P3/S1P1 (Method A) (S1P1 [2]): 670
- EC50 (S1P1 [3]): 0.58 nM
- EC50 (S1P3): 470 nM

Compound: CCc1c(-c2nc(-c3ccc(CN4CC(C(=O)O)C4)c(Br)c3)no2)noc1-c1ccccc1 [Example 5, 1-(2-Bromo-4-(5-(4-ethyl-5-phenylisoxazol-3-yl)-1,2,4-oxadiazol-3-yl)benzyl)azetidine-3-carboxylic acid]
- IC50 (S1P1 [1]): 0.14 nM
- EC50 (S1P1 [2]): 5.3 nM
- GTPγS S1P3/S1P1 (Method A) (S1P1 [2]): 320
- EC50 (S1P3): 1700 nM

Compound: O=C(O)C1CN(Cc2ccc(-c3noc(-c4noc(-c5ccccc5)c4C4CC4)n3)cc2)C1 [Example 6, 1-(4-(5-(4-Cyclopropyl-5-phenylisoxazol-3-yl)-1,2,4-oxadiazol-3-yl)benzyl)-azetidine-3-carboxylic acid, 2,2,2-trifluoroacetic acid salt]
- IC50 (S1P1 [1]): 0.043 nM
- EC50 (S1P1 [2]): 5.6 nM
- GTPγS S1P3/S1P1 (Method A) (S1P1 [2]): 75
- EC50 (S1P1 [3]): 0.22 nM
- EC50 (S1P3): 420 nM

Compound: O=C(O)C1CN(Cc2ccc(-c3noc(-c4noc(-c5ccccc5)c4CCC(F)(F)F)n3)cc2)C1 [Example 8, 1-(4-(5-(5-Phenyl-4-(3,3,3-trifluoropropyl)isoxazol-3-yl)-1,2,4-oxadiazol-3-yl)benzyl)azetidine-3-carboxylic acid, 2,2,2-trifluoroacetic acid salt]
- IC50 (S1P1 [1]): 0.09 nM
- EC50 (S1P1 [2]): 3.7 nM
- GTPγS S1P3/S1P1 (Method A) (S1P1 [2]): 140
- EC50 (S1P3): 520 nM

Compound: COC(=O)c1c(-c2ccccc2)noc1-c1nc(-c2ccc(CN3CC(C(=O)O)C3)cc2)no1 [Example 13, 1-(4-(5-(4-(Methoxycarbonyl)-3-phenylisoxazol-5-yl)-1,2,4-oxadiazol-3-yl)benzyl)azetidine-3-carboxylic acid, 2,2,2-trifluoroacetic acid salt]
- IC50 (S1P1 [1]): 0.094 nM
- EC50 (S1P1 [2]): 1.9 nM
- GTPγS S1P3/S1P1 (Method A) (S1P1 [2]): 578
- EC50 (S1P3): 1100 nM

Compound: O=C(NCC(F)(F)F)c1c(-c2ccccc2)noc1-c1nc(-c2ccc(CN3CC(C(=O)O)C3)cc2)no1 [Example 15, 1-(4-(5-(3-Phenyl-4-(2,2,2-trifluoroethylcarbamoyl)isoxazol-5-yl)-1,2,4-oxadiazol-3-yl)benzyl)azetidine-3-carboxylic acid, 2,2,2-trifluoroacetic acid salt]
- IC50 (S1P1 [1]): 6.5 nM
- EC50 (S1P1 [2]): 29 nM
- GTPγS S1P3/S1P1 (Method A) (S1P1 [2]): 175
- EC50 (S1P3): 5100 nM

Compound: O=C(O)c1c(-c2ccccc2)noc1-c1nc(-c2ccc(CN3CC(C(=O)O)C3)cc2)no1 [Example 16, 5-(3-(4-((3-Carboxyazetidin-1-yl)methyl)phenyl)-1,2,4-oxadiazol-5-yl)-3-phenylisoxazole-4-carboxylic acid]
- IC50 (S1P1 [1]): 40 nM
- EC50 (S1P1 [2]): 112 nM
- GTPγS S1P3/S1P1 (Method A) (S1P1 [2]): 18
- EC50 (S1P3): 2050 nM

Compound: CC(C)Cc1onc(-c2nc(-c3ccc(CN4CC(C(=O)O)C4)cc3)no2)c1C(F)(F)F [Example 20, 1-(4-(5-(5-Isobutyl-4-(trifluoromethyl)isoxazol-3-yl)-1,2,4-oxadiazol-3-yl)benzyl)-azetidine-3-carboxylic acid]
- IC50 (S1P1 [1]): 0.15 nM
- EC50 (S1P1 [2]): 0.56 nM
- GTPγS S1P3/S1P1 (Method A) (S1P1 [2]): 3,900
- EC50 (S1P3): 2200 nM

Compound: O=C(O)C1CN(Cc2ccc(-c3noc(-c4onc(-c5ccccc5)c4C(F)(F)F)n3)cc2F)C1 [Example 21, 1-(2-Fluoro-4-(5-(3-phenyl-4-(trifluoromethyl)isoxazol-5-yl)-1,2,4-oxadiazol-3-yl)benzyl)azetidine-3-carboxylic acid]
- IC50 (S1P1 [1]): 0.32 nM
- EC50 (S1P1 [2]): 0.32 nM
- GTPγS S1P3/S1P1 (Method A) (S1P1 [2]): 3,500
- EC50 (S1P3): 1100 nM

Compound: Cc1cc(-c2noc(-c3onc(-c4ccccc4)c3C(F)(F)F)n2)ccc1CN1CC(C(=O)O)C1 [Example 22, 1-(2-methyl-4-(5-(3-phenyl-4-(trifluoromethyl)isoxazol-5-yl)-1,2,4-oxadiazol-3-yl)benzyl)azetidine-3-carboxylic acid]
- IC50 (S1P1 [1]): 0.55 nM
- EC50 (S1P1 [2]): 0.52 nM
- GTPγS S1P3/S1P1 (Method A) (S1P1 [2]): 3,000
- EC50 (S1P3): 1600 nM

Compound: O=C(O)C1CN(Cc2ccc(-c3noc(-c4onc(-c5ccccc5)c4C(F)(F)F)n3)c(Cl)c2)C1 [Example 23, 1-(3-chloro-4-(5-(3-phenyl-4-(trifluoromethyl)isoxazol-5-yl)-1,2,4-oxadiazol-3-yl)benzyl)azetidine-3-carboxylic acid]
- IC50 (S1P1 [1]): 0.26 nM
- EC50 (S1P1 [2]): 1.9 nM
- GTPγS S1P3/S1P1 (Method A) (S1P1 [2]): 4,400
- EC50 (S1P3): 8300 nM

Compound: O=C(O)C1CN(Cc2ccc(-c3noc(-c4onc(-c5ccccc5)c4C(F)(F)F)n3)c(C(F)(F)F)c2)C1 [Example 24, 1-(4-(5-(3-phenyl-4-(trifluoromethyl)isoxazol-5-yl)-1,2,4-oxadiazol-3-yl)-3-(trifluoromethyl)benzyl)azetidine-3-carboxylic acid]
- IC50 (S1P1 [1]): 1.56 nM
- EC50 (S1P1 [2]): 6.4 nM
- GTPγS S1P3/S1P1 (Method A) (S1P1 [2]): 4,900
- EC50 (S1P3): 31000 nM

Compound: O=C(O)C1CN(Cc2ccc(-c3noc(-c4noc(-c5ccccc5)c4-c4ccccc4)n3)c(C(F)(F)F)c2)C1 [Example 25, 1-(4-(5-(4,5-Diphenylisoxazol-3-yl)-1,2,4-oxadiazol-3-yl)-3-(trifluoromethyl)benzyl)azetidine-3-carboxylic acid, 2,2,2-trifluoroacetic acid salt]
- IC50 (S1P1 [1]): 0.44 nM
- EC50 (S1P1 [2]): 9.2 nM
- GTPγS S1P3/S1P1 (Method A) (S1P1 [2]): 371
- EC50 (S1P3): 3400 nM

Source: patent US8354398B2, “Substituted isoxazole compounds” (Bristol-Myers Squibb Company, priority 2009, dated 2013)
